Measured values from patent US20040220268A1, “Compound that directly stimulates phospholipase C activity” (priority 2003, published 2004).

Legend:
NIH3T3 cells = test: [Ca2+]i measurement with fura-2; type: cell-based, mouse; conditions: NIH 3T3; 25 μM
Experimental: (§1) Neutrophils and HL60, and differentiated HL60, U937, NIH3T3, and PC12 cells were loaded with fura-2 and then stimulated with 25 μM of m-3M3FBS. Changes in the 340 nm/380 nm excitation ratio were monitored, and converted to [Ca^2+]i levels. Data are presented as means ±S. E. M. of three independent experiments.
(§2) U937 (human histiocytic lymphoma cells), HL60 (human promyelocytic leukemia cells), NIH3T3 (NIH Swiss mouse embryo fibroblasts), and PC12 (rat adrenal pheochromocytoma cells) were obtained from the American Type Culture Collection (Rockville, Md.) and HeLa (human adenocarcinoma cells) Tet-off cells were purchased from Clontech (Palo Alto, Calif., U.S.A.) and maintained as recommended. The cells were maintained at about 1×10^6 cells/ml under standard incubator conditions (humidified atmosphere, 95% air, 5% CO2, 37° C.). […]
(§3) Freshly prepared human neutrophils were incubated in serum free RPMI 1640 medium with 3 μM of fura-2/AM at 37° C. for 30 min with continuous stirring. […] Changes in the fluorescence ratio were measured at an emission wavelength of 500 nm for dual excitation wavelengths at 340 nm and 380 nm. The calibration of the fluorescence ratio versus [Ca^2+]i was performed as described by Grynkiewicz (Grynkiewicz et al., 1985).

PC12 cells = test: [Ca2+]i measurement with fura-2; type: cell-based, rat; conditions: 25 μM
Experimental: as §1, §2, §3

[1] = tested on: PTX-sensitive Gi-proteins; test: PTX sensitivity of [Ca2+]i increase in neutrophils; type: cell-based, human; conditions: PTX 1 μg/ml for 90 min; m-3M3FBS 25 μM, fMLF 1 μM
Experimental: Isolated neutrophils were preincubated with PTX (1 μg/ml) or vehicle for 90 min at 37° C. and stimulated with m-3M3FBS, FMLF, or ATP at concentrations of 25, 1, and 500 μM, respectively. Changes in the excitation ratios at 340 nm/380 nm were monitored. Data are presented as means ±S. E. M. of two independent experiments (A). cAMP levels were determined by a radio receptor assay. Prepared cells were treated with m-3M3FBS (25 μM) or histamine (100 μM) and then lysed with Tris-EDTA. After removing the supernatant, [ 3H] cAMP and protein were added, and the amount of [^3H] cAMP-protein complex was determined. The amount of unlabeled cAMP (in the sample) was then calculated by measuring the protein-bound radioactivity. Data are presented as means ±S. E. M. of two independent experiments (B). RGS2-GFP inducible HeLa cells were cultured for 48 h in the absence or in the presence of tetracycline, and the induction of RGS2-GFP was confirmed by Western blot analysis using anti-GFP antibody (C). RGS2-GFP inducible HeLa cells were cultured for 48 h in the absence or in the presence of tetracycline and loaded with fura-2. Cells were treated with histamine (100 μM) or m-3M3FBS (25 μM), and changes in the 340 nm/380 nm ratios were monitored and converted to [Ca^2+]i values. The results shown are representative of three independent experiments (C).
Freshly prepared human neutrophils were incubated in serum free RPMI 1640 medium with 3 μM of fura-2/AM at 37° C. for 30 min with continuous stirring. After washing with serum free RPMI 1640 medium, the cells were suspended in serum free RPMI containing 250 μM of sulfinpyrazone to prevent dye leakage. About 2×10^6 cells were suspended in Ca^2+ free Locke's solution (158.4 mM NaCl, 5.6 mM KCl, 1.2 mM MgCl2, 5 mM HEPES pH 7.3, 10 mM glucose, and 0.2 mM EGTA) for each measurement. Changes in the fluorescence ratio were measured at an emission wavelength of 500 nm for dual excitation wavelengths at 340 nm and 380 nm. The calibration of the fluorescence ratio versus [Ca^2+]i was performed as described by Grynkiewicz (Grynkiewicz et al., 1985).

PLC = test: In vitro PLC activity in the presence or absence of Ca2+; type: biochemical; conditions: data not shown
Description: Moreover, the primary structures of the several different isoforms of PLC are known (Rhee, 2001; Noh et al., 1995). PLC β and PLC δ have an NH2-terminal PH domain, an EF-hand, X and Y domains, known to form the catalytic core, and a COOH-terminal C2 domain. In addition, PLC β has a long C-terminal tail beyond the C2 domain (Rhee, 2001; Noh et al., 1995; Rhee and Bae, 1997). PLC γ has additional three SH domains between the X and Y domains, but no long COOH-terminal tail (Rhee, 2001; Noh et al., 1995; Rhee and Bae, 1997). […] For the proper activation of PLC enzyme, calcium has been regarded as an essential requirement (Rhee and Bae, 1997). Calcium is required not only for the functioning of C2 domain that mediates the Ca^2+-dependent binding to lipid vesicles but also for the catalytic activity of the enzyme (Rhee and Bae, 1997). […] An investigation of the effect of m-3M3FBS on the lipase activity of an X and Y domain mixture will be required to confirm the possible action of m-3M3FBS on the two catalytic cores. Since m-3M3FBS is the first compound that directly stimulates PLC activity, the elucidation of the action mechanism of the compound will give useful information on the basic molecular mechanisms of the activation of PLC enzymes.

PI3-kinase = test: Akt phosphorylation in U937 cells; type: cell-based, human; conditions: 50 μM, data not shown
Description: The result led us to check whether the compound act specifically on PLC or act on other enzymes that recognize phosphoinositols as substrates such as phosphoinositide-3-kinase (PI3-kinase). For this, we tested the effect of m-3M3FBS on the Akt phosphorylation that is dependent on the PI3-kinase in U937 cells. […] The result support our notion that m-3M3FBS acts specifically on PLC.

Structure (SMILES): Cc1cc(C)c(S(=O)(=O)Nc2cccc(C(F)(F)F)c2)c(C)c1 [m-3M3FBS, 2,4,6-Trimethyl-N-(meta 3-trifluoromethyl-phenyl)-benzenesulfonamide]
- calcium increase (NIH3T3 cells): induced calcium increase
- calcium increase (PC12 cells): induced calcium increase
- effect of PTX preincubation on the induced calcium increase [1]: insensitive to PTX
- in vitro PLC activity (PLC): stimulated
- phosphorylation level of Akt (PI3-kinase): couldn't significantly increase
